Measured values published in US20240239788A1, “SMALL MOLECULE INHIBITORS OF KRAS G12D MUTANT” (Merck Sharp & Dohme LLC, priority 2021, published 2024).
Read-outs that look alike come from different tables or passages of the source.

Tests used:
[1] = molecular target: KRAS protein containing G12D mutation (Homo sapiens (Human), UniProt P01116, G12D); assay: SOS-catalyzed nucleotide exchange assay (GNE), TR-FRET; assay type: biochemical; details: biotinylated KRAS G12D, SOS and GTP, 60-minute incubation
Description: Compounds are added to this complex and then after a 60-minute incubation time the mixture is treated with SOS and unlabeled GTP. Small molecule inhibitors stabilize the Bodipy-GDP complex whereas the untreated protein rapidly exchanges Bodipy-GDP for unlabeled GTP resulting in reduced TR-FRET signal.
This solution is referred to as biotinylated KRAS G12D stock solution.

[2] = tested on: AsPC-1 cells containing homozygous KRAS-G12D activating mutation; assay: Cellular phospho-ERK assay with 10% FBS (Examples 107a-256); assay type: cell-based
Description: 5% CO2 for 2 hours. […] Assay plates were read on a EnVision Multimode Plate Reader (PerkinElmer) and the ratio of p-Erk vs total Erk in each well was used as the final readout.

[3] = read-out: IC50 (nM) pERK (cell with FBS 10%), AsPC-1 cells, 10% fetal bovine serum, 2 hours, ratio of p-Erk vs total Erk
[4] = Homo sapiens, ASPC1, 2 h, read-out: IC50 (nM) pERK (cell with FBS 10%), AsPC-1 cells, 10% fetal bovine serum, 2 hours, ratio of p-Erk vs total Erk

Sequence of KRAS protein containing G12D mutation (P01116 other isoform, or with tags, fused parts or gaps G12D (already in the parent)): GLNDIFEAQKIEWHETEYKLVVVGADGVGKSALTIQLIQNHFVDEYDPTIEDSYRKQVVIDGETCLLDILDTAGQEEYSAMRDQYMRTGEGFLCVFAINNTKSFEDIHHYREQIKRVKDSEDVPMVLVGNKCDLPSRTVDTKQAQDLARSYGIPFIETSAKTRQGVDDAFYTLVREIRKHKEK

Structure (SMILES) | IC50 [1] | IC50 [2, 3] | IC50 [2, 4]
Cc1nc(N)c(C)c(-c2c(F)cc3c(N4CC5CCC(C4)N5)nc(OC[C@@]45CCCN4C[C@H](F)C5)nc3c2F)c1C(F)(F)F (single isomer, unassigned) [Ex. 191b] | 2840 nM | 30000 nM | 
C#Cc1cccc2cc(O)c(F)c(-c3c(F)cc4c(N5CC6CC[C@@](C)(C5)N6)nc(OC[C@@]56CCCN5C[C@H](F)C6)nc4c3F)c12 (single isomer, unassigned) [Ex. 192a] | 1.17 nM | 114 nM | 
C#Cc1cccc2cc(O)c(F)c(-c3c(F)cc4c(N5CC6CC[C@@](C)(C5)N6)nc(OC[C@@]56CCCN5C[C@H](F)C6)nc4c3F)c12 (single isomer, unassigned) [Ex. 192b] | 37 nM | 1570 nM | 
Cc1cc(N)nc(-c2c(F)cc3c(N4CC5CC[C@@](C)(C4)N5)nc(OC[C@@]45CCCN4C[C@H](F)C5)nc3c2F)c1C(F)(F)F (single isomer, unassigned) [Ex. 200a] | 72.9 nM |  | 1220 nM
CN(C)C[C@@]1(COc2nc(N3C[C@H]4CC[C@@H](C3)N4)c3cc(F)c(-c4c(C(F)(F)F)c(Cl)cc5cnn(C)c45)c(F)c3n2)CC1(F)F (single isomer, unassigned) [Ex. 201b] | 45.9 nM |  | 15600 nM
C#Cc1cccc2nc(N)cc(-c3c(F)cc4c(N5CC6CCC(C5)N6)nc(OC[C@@]56CCCN5C[C@H](F)C6)nc4c3F)c12 (single isomer, unassigned) [Ex. 203a] | 380 nM | 3020 nM | 
C#Cc1cccc2nc(N)cc(-c3c(F)cc4c(N5CC6CCC(C5)N6)nc(OC[C@@]56CCCN5C[C@H](F)C6)nc4c3F)c12 (single isomer, unassigned) [Ex. 203b] | 3.32 nM | 120 nM | 
C#Cc1cccc2cc(O)c(C)c(-c3c(F)cc4c(N5CC6CC[C@@](C)(C5)N6)nc(OC[C@@]56CCCN5C[C@H](F)C6)nc4c3F)c12 (single isomer, unassigned) [Ex. 204a] | 1.13 nM | 64.2 nM | 
C#Cc1cccc2cc(O)c(C)c(-c3c(F)cc4c(N5CC6CC[C@@](C)(C5)N6)nc(OC[C@@]56CCCN5C[C@H](F)C6)nc4c3F)c12 (single isomer, unassigned) [Ex. 204b] | 23.4 nM | 443 nM | 
C[C@]12CCC(CN(c3nc(OCC4(CN5CC6CCC(C5)O6)CC4)nc4c(F)c(-c5cc(O)cc6cccc(Cl)c56)c(F)cc34)C1)N2 (single isomer, unassigned) [Ex. 208] | 210 nM |  | 30000 nM
CC(O)(COc1nc(N2CC3CC[C@@](C)(C2)N3)c2cc(F)c(-c3cc(O)cc4cccc(Cl)c34)c(F)c2n1)CN1CC[C@@H](F)C1 (single isomer, unassigned) [Ex. 209] | 46.1 nM |  | 2910 nM
C#Cc1cccc2cccc(-c3c(F)cc4c(N5CC6CC[C@@](C)(C5)N6)nc(OC[C@@]56CCCN5C[C@H](F)C6)nc4c3F)c12 (single isomer, unassigned) [Ex. 211b] | 7.41 nM |  | 2010 nM
COCCNC[C@@]1(COc2nc(N3CC4CC[C@@](C)(C3)N4)c3cc(F)c(-c4c(C(F)(F)F)c(C)cc5[nH]ncc45)c(F)c3n2)CC1(F)F (single isomer, unassigned) [Ex. 213] | 4460 nM |  | 25600 nM
COCC1CCN(C[C@@]2(COc3nc(N4CC5CC[C@@](C)(C4)N5)c4cc(F)c(-c5cc(O)cc6cccc(Cl)c56)c(F)c4n3)CC2(F)F)C1 (single isomer, unassigned) [Ex. 214a] | 4.95 nM | 3710 nM | 
COCC1CCN(C[C@@]2(COc3nc(N4CC5CC[C@@](C)(C4)N5)c4cc(F)c(-c5cc(O)cc6cccc(Cl)c56)c(F)c4n3)CC2(F)F)C1 (single isomer, unassigned) [Ex. 214b] | 180 nM | 9070 nM | 
CO[C@@H]1CCN(C[C@@]2(COc3nc(N4CC5CC[C@@](C)(C4)N5)c4cc(F)c(-c5cc(O)cc6cccc(Cl)c56)c(F)c4n3)CC2(F)F)C1 (single isomer, unassigned) [Ex. 215a] | 5.06 nM | 14000 nM | 
